Results taken from patent publication US7056938B1, “Method for scavenging radicals with urocanic acid, derivatives and analogues” (Academisch Ziekenhuis Bij De Univ., priority 1999, dated 2006).

Assays:
[1] = Fenton oxidation of UCA (Fe2+ / hydrogen peroxide, HPLC); type: physicochemical; details: for TRANS-UROCANIC ACID LEFT OVER: trans-UCA 40 μM, hydrogen peroxide 500 μM; for YIELD of FENTON OXIDATION PRODUCTS: sum of 8 major peaks
Method: Trans-UCA and cis-UCA were separated from each other and from several UCA oxidation products on a 4.6×250 mm Alltima C18 and Luna C18 reversed-phase column (Alitech, Deerfield, Ill. and Phenomenex, Torrence, Calif., resp.) with a flow of 0.8 mL/min, delivered by P-3500 HPLC-pumps (Pharmacia, Uppsala, Sweden). Samples of 20 to 200 μL were injected by a Promis II autosampler (Spark Holland, Emmen, The Netherlands) and chromatographic data were recorded on an SP 4270 integrator (Spectra Physics, San Jose, Calif.). Peak area data from samples were only processed under identical HPLC circumstances. A UV-detector (Applied Biosystems, model 759A, Foster City, Calif.) was set for 226 nm detection. Isocratic elution was performed with 10 mM ammonium formate buffer, containing 0.2–0.8 mM tetrabutylammonium(TBA)formate and 1% acetonitrile (pH 7.2). Collected fractions were acidified with formic acid up to a final concentration of 100 mM and passed through C18 could phase extraction columns (J T Baker, Deventer, The Netherlands) in order to remove TBA.
[…] In addition, two hydroxyl-radical-generating systems with copper ions (Cu^2+) were used, consisting of 50 μM Cu^2+ with either 500 μM hydrogen peroxide or 5 mM ascorbic acid.
In the next series of experiments we studied the Fenton oxidation of UCA, representing another natural oxidation process. Trans-UCA and cis-UCA isomers were Fenton oxidized by ferorus ions (Fe^2+) and hydrogen peroxide at physiological concentrations. The initial hydrogen peroxide concentration was 500 μM and the ferrous ion concentration was varied from 0 to 500 μM. In all Fenton oxidation reactions the degree of UCA-isomer breakdown was calculated from their reduced peak areas. The oxidation reaction must have been completed within 2 minutes for all reaction conditions, because no further breakdown was observed after prolonged incubation.
When the Fenton reaction was performed in water instead of phosphate buffer, the oxidative breakdown of trans-UCA was enhanced irrespective of the UCA concentration. The turbidity seen in reactions performed in phoshate buffer (10 mM) with high Fe^2+ concentration (>100 μM) was probably due to the formation of insoluble, iron phosphate, thereby reducing the free availability of Fe^2+. Table 3 summarizes the difference between water and phosphate medium for trans-UCA at an initial concentration of 40 μM with respect to its breakdown and the formation of Fenton-oxidation products. Similarly to the photo-oxidation experiments, the peak areas of the 8 major oxidation products were summed. […] A close resemblance was observed between the chromatographic patterns of UCA Fenton oxidation products (not shown) and those of UCA photo-oxidation products. Three of them has been identified (vide infra).
In another series of experiments we studied the Fenton oxidation of UCA, representing another natural oxidation process. The initial hydrogen peroxide concentration was 500 μM in all experiments and the ferrous ion concentration was varied from 0 to 400 μM. Four sets of conditions were compared: […] in phosphate buffer pH 7.2, 2. Fe^2+ in phosphate buffer plus EDTA, 3. Fe^2− without buffer with a initial pH of 5.5–5.3 and 4. Cu^2+ in phosphate buffer plus ascorbate. The degree of breakdown was similar for both UCA isomers.

[2] = hydroxyl-radical-generating systems with copper ions (Cu2+); type: physicochemical
Method: UCA isomers (10 or 40 μM) were oxidized with a hydroxyl-radical-generating system that consisted of various concentrations of ferrous ions (10–500 μM) and a fixed hydrogen peroxide concentration of 500 μM (the Fenton reagent), either in a sodium phosphate (10 or 20 mM) medium of pH 7.2, or in ultrapure water. In addition, two hydroxyl-radical-generating systems with copper ions (Cu^2+) were used, consisting of 50 μM Cu^2+ with either 500 μM hydrogen peroxide or 5 mM ascorbic acid.
Evaluation of the data was difficult with the ascorbate system, because several interfering peaks had occurred in the chromatograms, which were probably derived from ascorbic acid and its oxidation products.
When another hydroxyl-radical-generating system, based on copper ions (Cu^2+) was investigated, the combination of Cu^2+/ascorbic acid/hydrogen peroxide caused a large breakdown or trans-UCA (Table 3) and a moderate yield of UCA oxidation products, in favor of ImCOOH. […] For the situation in vivo, one must remember that the epidermal copper content is lower than iron (29).

O=C(O)/C=C/c1cnc[nH]1 [trans-Urocanic acid, Trans-urocanic acid]
TRANS-UROCANIC ACID LEFT OVER ([1]; Fe2+ 0 μM, in phosphate buffer 10 mM pH 7.2): 100 (±1) %
YIELD of FENTON OXIDATION PRODUCTS ([1]; Fe2+ 0 μM, in phosphate buffer): <10 A.U.
YIELD of FENTON OXIDATION PRODUCTS ([1]; Fe2+ 0 μM, in water): <10 A.U.
TRANS-UROCANIC ACID LEFT OVER ([1]; Fe2+ 0 μM, in water): 100 (±3) %
TRANS-UROCANIC ACID LEFT OVER ([1]; Fe2+ 50 μM, in phosphate buffer 10 mM pH 7.2): 97 (±1) %
YIELD of FENTON OXIDATION PRODUCTS ([1]; Fe2+ 50 μM, in phosphate buffer): <10 A.U.
YIELD of FENTON OXIDATION PRODUCTS ([1]; Fe2+ 50 μM, in water): 194 (±34) A.U.
TRANS-UROCANIC ACID LEFT OVER ([1]; Fe2+ 50 μM, in water): 77 (±11) %
TRANS-UROCANIC ACID LEFT OVER ([1]; Fe2+ 100 μM, in phosphate buffer 10 mM pH 7.2): 94 (±5) %
YIELD of FENTON OXIDATION PRODUCTS ([1]; Fe2+ 100 μM, in phosphate buffer): 27 (±5) A.U.
YIELD of FENTON OXIDATION PRODUCTS ([1]; Fe2+ 100 μM, in water): 272 (±6) A.U.
TRANS-UROCANIC ACID LEFT OVER ([1]; Fe2+ 100 μM, in water): 48 (±7) %
TRANS-UROCANIC ACID LEFT OVER ([1]; Fe2+ 250 μM, in phosphate buffer 10 mM pH 7.2): 83 (±3) %
YIELD of FENTON OXIDATION PRODUCTS ([1]; Fe2+ 250 μM, in phosphate buffer): 36 (±3) A.U.
YIELD of FENTON OXIDATION PRODUCTS ([1]; Fe2+ 250 μM, in water): 423 (±76) A.U.
TRANS-UROCANIC ACID LEFT OVER ([1]; Fe2+ 250 μM, in water): 19 (±8) %
TRANS-UROCANIC ACID LEFT OVER ([1]; Fe2+ 500 μM, in phosphate buffer 10 mM pH 7.2): 78 (±12) %
YIELD of FENTON OXIDATION PRODUCTS ([1]; Fe2+ 500 μM, in phosphate buffer): 49 (±9) A.U.
YIELD of FENTON OXIDATION PRODUCTS ([1]; Fe2+ 500 μM, in water): 511 (±35) A.U.
TRANS-UROCANIC ACID LEFT OVER ([1]; Fe2+ 500 μM, in water): <4%
broken down by the unbuffered Fenton oxidation system ([1]; initial UCA concentration 250 μM, unbuffered): 78%
trans-UCA left ([2]; Cu2+ (50 μM) and ascorbic acid (5 mM) without hydrogen peroxide): 3%
trans-UCA left ([2]; Cu2+ (50 μM) and hydrogen peroxide (500 μM), without ascorbic acid): 88%
